Experimental data published in the OPERA property sets (Mansouri et al. 2018).

| SMILES | log10 Koc (L/kg) | melting point | boiling point | log10 vapour pressure (mmHg) | ready biodegradability | log10 Henry constant (atm·m³/mol) | log10 Koa |
| --- | --- | --- | --- | --- | --- | --- | --- |
| CN(C)C(=O)c1ccccc1 | 1.6 | 44 °C |  |  |  |  |  |
| COc1cccc(CC(C)=O)c1 |  |  | 259 °C |  |  |  |  |
| NCCCN1CCOCC1 |  | -15 °C | 220 °C |  |  |  |  |
| O=C(OCc1ccccc1)c1ccccc1 |  | 21 °C | 324 °C | -3.65 | readily biodegradable |  |  |
| CC(C)COC(=O)C(C)Oc1ccc(Oc2ccc(Cl)cc2)cc1 (configuration not stated) |  | 39.5 °C |  |  |  |  |  |
| CC1=C(C(=O)Nc2ccccc2)CCCO1 |  | 110 °C |  |  |  |  |  |
| Nc1c(F)c(F)cc(F)c1F |  | 31.5 °C | 158 °C |  |  |  |  |
| Cc1cc(O)c2c(c1)C(=O)c1cccc(O)c1C2=O |  | 196 °C |  |  |  |  |  |
| CCOCc1ccccc1 |  |  | 186 °C | -0.0339 |  |  |  |
| OCc1ccc(Cl)cc1 |  | 75 °C | 235 °C |  |  |  |  |
| O=S(=O)(Oc1ccc(Cl)cc1Cl)c1ccccc1 |  | 45.5 °C |  |  |  |  |  |
| ClC(Cl)C(Cl)(Cl)C(Cl)Cl |  |  | 218 °C |  |  |  |  |
| CC(=O)c1ccc[nH]1 |  | 90 °C | 220 °C |  |  |  |  |
| CC(N)CCN (configuration not stated) |  |  | 140 °C |  |  |  |  |
| CCCCCCCC(C)CC (configuration not stated) |  | -92.9 °C | 188 °C |  |  |  |  |
| COC(=O)C(C)C(=O)OC |  |  | 174 °C |  |  |  |  |
| CC(C)(C)I |  | -38.2 °C | 100 °C |  |  |  |  |
| Cc1cc(=O)[nH]c(=S)[nH]1 | 2.14 |  |  |  |  |  |  |
| Nc1cc2c(cc1Cl)C(=O)c1ccccc1C2=O |  | 282 °C |  |  |  |  |  |
| NC(=O)c1ccccc1C(N)=O |  | 222 °C |  |  |  |  |  |
| Nc1ccc(N=Nc2ccccc2)c(N)n1 | 2.32 | 139 °C |  |  |  |  |  |
| O=C(O)C1C2CCC(O2)C1C(=O)O (configuration not stated) | 2.09 | 144 °C |  | -9.8 |  |  |  |

| SMILES | log10 Koc (L/kg) | melting point | boiling point | log10 vapour pressure (mmHg) | ready biodegradability | log10 Henry constant (atm·m³/mol) | log10 Koa |
| --- | --- | --- | --- | --- | --- | --- | --- |
| Cc1ccc2cccc([N+](=O)[O-])c2n1 |  | 140 °C |  |  |  |  |  |
| CCOCCOCCOCCO |  | -18.7 °C | 256 °C | -2 | readily biodegradable |  |  |
| CCCCCCCCCCCCCCCCCN |  | 49 °C | 336 °C |  |  |  |  |
| CC(=O)NC(CC(=O)[O-])C(=O)[O-] (configuration not stated) |  | 138 °C |  |  |  |  |  |
| ICCCCCI |  | 9 °C |  |  |  |  |  |
| FCOC(C(F)(F)F)C(F)(F)F |  |  | 58.5 °C | 2.29 |  |  |  |
| C=CCOc1c(Br)cc(C(C)(C)c2cc(Br)c(OCC=C)c(Br)c2)cc1Br |  | 119 °C |  |  |  |  |  |
| O=C(O)c1ccccc1C(=O)Nc1cccc2ccccc12 |  | 185 °C |  |  |  |  |  |
| C=C1CC[C@H](O)C/C1=C/C=C1\CCC[C@]2(C)[C@@H]([C@H](C)/C=C/[C@H](C)C(C)C)CC[C@@H]12 |  | 116 °C |  |  |  |  |  |
| O=C(Cl)c1ccc(Cl)cc1Cl |  | 16.5 °C |  |  |  |  |  |
| CC[C@@]12CCCN3CC[C@]4(c5cccc(OC)c5N(C(C)=O)[C@@H]4CC1)[C@H]32 |  | 208 °C |  |  |  |  |  |
| CC(C)(C)S |  | -0.5 °C | 64 °C | 2.26 |  |  |  |
| O=[N+]([O-])c1ccc(CO)cc1 |  | 96.5 °C |  |  |  |  |  |
| CCC1=CCCCC1 |  | -110 °C | 137 °C |  |  |  |  |
| Clc1ccccc1C=C1c2ccccc2-c2ccccc21 |  | 69.5 °C |  |  |  |  |  |
| O=c1[nH]c(=O)n([C@H]2C[C@H](O)[C@@H](CO)O2)cc1F |  | 150 °C |  |  |  |  |  |
| CN(C)CCn1cnc2c1c(=O)n(C)c(=O)n2C |  | 95 °C |  |  |  |  |  |
| C[Si]1(C)O[Si](C)(C)O[Si](C)(C)O[Si](C)(C)O[Si](C)(C)O1 |  | -38 °C | 210 °C | -0.699 |  | 1.52 |  |
| CC(C)CCC[C@@H](C)[C@H]1CC[C@@H]2[C@@H]3CC[C@H]4CCCC[C@]4(C)[C@H]3CC[C@@]21C |  | 76 °C |  |  |  |  |  |
| CN(C)CCc1c[nH]c2ccccc12 |  | 46 °C |  |  |  |  |  |
| CC(C)[N+](C)(CCOC(=O)C1c2ccccc2Oc2ccccc21)C(C)C.[Br-] |  | 160 °C |  |  |  |  |  |
| CN(C(=O)COc1nc2ccccc2s1)c1ccccc1 |  | 135 °C |  | -8.32 |  |  |  |

| SMILES | log10 Koc (L/kg) | melting point | boiling point | log10 vapour pressure (mmHg) | ready biodegradability | log10 Henry constant (atm·m³/mol) | log10 Koa |
| --- | --- | --- | --- | --- | --- | --- | --- |
| Cc1ccccc1CBr |  | 21 °C | 217 °C |  |  |  |  |
| CC1=CCC(C(C)(C)O)C[C@@H]1O (some centres not stated) |  | 130 °C | 270 °C |  |  |  |  |
| FC(F)(F)F |  | -184 °C | -128 °C | 5.24 |  | 0.712 | -0.95 |
| Nc1c2c(nc3ccccc13)CCCC2 |  | 184 °C |  |  |  |  |  |
| CC=C(C)CC |  | -137 °C | 69 °C | 2.2 |  |  |  |
| CCC1CCC(=O)CC1 |  |  | 193 °C |  |  |  |  |
| CCC(C)(CC(=O)O)CC(=O)O |  | 87 °C | 261 °C |  |  |  |  |
| COC(=O)[C@H]1[C@H]2C[C@@H]3c4[nH]c5cc(OC)ccc5c4CCN3C[C@H]2C[C@@H](OC(=O)c2cc(OC)c(OC)c(OC)c2)[C@@H]1OC |  | 264 °C |  |  |  |  |  |
| CCOCCl |  |  | 83 °C |  |  |  |  |
| O=C(Cl)OCCOCCOC(=O)Cl |  |  | 229 °C | -2.83 |  |  |  |
| CCCOC(=O)C(O)C(O)C(=O)OCCC (configuration not stated) |  |  | 303 °C |  |  |  |  |
| CCc1nc2ccccc2[nH]1 |  | 175 °C |  |  |  |  |  |
| ON=C(C(=NO)c1ccccc1)c1ccccc1 |  | 240 °C |  |  |  |  |  |
| CC1(C)CC(O)CC(C)(C)N1 |  |  |  |  | not readily biodegradable |  |  |
| Cc1ccc([N+](=O)[O-])c2ccccc12 |  | 71.5 °C |  |  |  |  |  |
| C1CCC(C(C2CCCCC2)C2CCCCC2)CC1 |  | 48 °C | 326 °C |  |  |  |  |
| CCO[Si](CCCN)(OCC)OCC |  |  | 217 °C |  | not readily biodegradable |  |  |
| CC(=O)O.CC(=O)O.N=C(NCCCCCCNC(=N)NC(=N)Nc1ccc(Cl)cc1)NC(=N)Nc1ccc(Cl)cc1 |  | 154 °C |  |  |  |  |  |
| O=C1C(=Cc2ccccc2)CCCC1=Cc1ccccc1 |  | 118 °C |  |  |  |  |  |
| CC1=NN(c2cc(Cl)c(S(=O)(=O)O)cc2Cl)C(=O)C1 |  |  |  |  | not readily biodegradable |  |  |
